Laboratory results as given in patent US20240139149A1, “THERAPEUTIC USES OF UROLITHIN DERIVATIVES” (Vandria SA, priority 2022, published 2024).

Assays:
[1] = system: mouse T lymphocytes; test: Proportion of mouse T memory stem cells (Tscm); assay type: cell-based; conditions: 2 μM, 72 h
Procedure: T cells were isolated and stimulated as described in Example 14.
Tscm represent a subset of minimally differentiated T cells, which share a CD44^loCD62L^hi phenotype with naïve T cells, but are phenotypically distinct by expressing high levels of Sca1 (Gattinoni et al., 2009). Tscm are therefore identified as CD44^−CD62L^+Sca1^hi cells.
Flow cytometry and analysis was performed as described in Example 14.

[2] = system: mouse T lymphocytes; test: Mitochondrial content (Mitotracker positive cells) in mouse T lymphocytes; assay type: cell-based; conditions: 2 μM, 72 h
Procedure: Splenic murine T cells were isolated from mice aged 6-20 weeks by negative selection with EasySep mouse T cell isolation kit (Stem cell) according to the manufacturer's instructions. T cell activation was initiated using CD3/CD28 activation beads (11456D; ThermoFisher Scientific) at a ratio of 25 μl dynabeads per 0.5×10^6 T-cells. Cells were activated with test compounds at 2 μM or DMSO in T cell activation Medium (RPMI (ThermoFisher Scientific) 10% FBS (South America origin), 10 mM Hepes (Sigma), 1× Non-Essential Amino Acid, 1 mM Sodium Pyruvate, 50 μM β-Mercaptoethanol, 100 U/ml penicillin, 100 μg/ml streptomycin and 2 mM Glutamax (ThermoFisher Scientific) for 72 h. For subsequent analysis, activating beads were magnetically removed prior staining.
For flow cytometric analysis of mitochondria 500 μl of Mitotracker Red (200 nM; ThermoFisher) was applied followed by surface staining.
Cell doublets and cells debris were excluded from the analysis by gating FSC-A vs FSC-H followed by SSC-A vs SSC-H dot plots and FSC-A vs SSC-A dot plots, respectively. eFluor 780 highly positive cells, i.e, dead cells, were gated out of the analysis. Data was acquired on Canto II (BD), Fortessa (BD) and Aurora (Cytek) cytometers and analyzed with FlowJo.

[3] = system: AOM-induced colon tumors; test: AOM-induced colorectal tumorigenesis, UA-containing diet; assay type: in vivo, mouse; conditions: FVB mice
Source text: Urolithin A containing diet (2.28 g/kg) or AIN− 93G control food (Brogaarden) were given ad libitum once introduced for experimental purpose at the indicated time. Animal experiments were approved by the Regierungsprasidium Darmstadt under animal application numbers F123/1009; F123/1062 and F123/2008.
Colorectal tumors were induced by 6 consecutive weekly injections of AOM on mice fed with food containing 2.28 g/kg Urolithin A (UA diet) or with control food. The diet was introduced one-week prior the first AOM injection and maintained until the end of the experiment at ˜20-24 weeks. The colons were collected for subsequent histological analysis as described below. For subcutaneous colorectal cancers, APTK organoids were mechanistically disrupted, incubated with Accutase to generate a single cell suspension and reconstituted in PBS 20% Matrigel (Corning) for subcutaneous transplantation. Tumor sizes were measured at the indicated time after transplantation and tumor volume quantified as ½(width2×length). Urolithin A or control food regiment were initiated either one week before tumor challenge or 11 days after tumor development. Therapeutic diets were maintained throughout the experiment unless indicated otherwise. […] CD8-depleting antibodies (InvivoMab anti-mouse CD8; Hoelzel; BE0061) or isotype controls (InvivoMab rat IgG2b isotyp; Hoelzel; BE0090) were applied every three days, starting at five days after tumor initiation. To study combination efficacy with immunotherapy, mice were injected i.p. with 100 μl nVivoMAb anti-mouse PD-1 (Hoelzel; BE0146) and InVivoMab mouse IgG2b isotype control (Hoelzel; BE0086) every 2 days, starting three days after tumor injection.
For histological analysis of colon tissue, colons were paraffin embedded using the “swiss roll” technique and serially sectioned at […]. […] AOM tumor lesion size and incidence were quantified using Aperio ImageScope software.

[4] = system: CEA-CAR T cells / CEA-expressing human CRC organoids; test: CEA-CAR T cells exposed to UA and killing of human CRC organoids; assay type: cell-based
[5] = AOM weekly for six weeks, oral UA diet 2.28 g/kg vs control diet

Row | Structure (SMILES) | increase in the percentage of Tscm in CD8+ cells vs DMSO [1] | percentage of Tscm in CD8+ cells ([1]; DMSO 16.7%) | increase in the percentage of Mitotracker positive cells vs DMSO [2] | percentage of Mitotracker positive cells ([2]; DMSO 44%) | tumor incidence [3, 5] | tumor size [3, 5] | infiltration of CD3+ T cells into the colonic mucosa ([3]; AOM, oral UA diet 2.28 g/kg) | killing of CEA-expressing human CRC organoids ([4]; 72 h co-culture) | CAR TSCM formation in CEA-specific CAR-T cells ([4]; UA applied to previously frozen CAR-T cells)
1 | O=c1oc2cc(O)ccc2c2ccc(OC3CCOCC3)cc12 [compound 33, 3-hydroxy-8-((tetrahydro-2H-pyran-4-yl)oxy)-6H-benzo[c]chromen-6-one] | 81% | 30.2% | 19% | 52.5% |  |  |  |  | 
2 | O=c1oc2cc(O)ccc2c2ccc(O)cc12 [UA, Urolithin A] |  |  |  |  | significant decrease | significant decrease | increased infiltration | comparable killing efficacy | strongly enhanced
